Data taken from US20090124680A1, “USE OF PRODRUG COMPOSITION CONTAINING NAPHTHOQUINONE-BASED COMPOUND FOR MANUFACTURE OF MEDICAMENT FOR TREATMENT OR PREVENTION OF DISEASES INVOLVING METABOLIC SYNDROME” (Mazence Inc., priority 2007, published 2009).

Columns and labels:
[1] = Weight loss effects in obese mice: body weight, body weight gain and food intake; format: in vivo, C57BL/6 male mice; conditions: high-fat diet mice; oral, 28 days; Example 14 195 mg/kg, Example 5 65 mg/kg; compared to control group; FIGS. 1 and 2
Protocol: (§1) 4-week-old C57BL/6 male mice were purchased from Orient BIO Inc. (Korea). Animals were raised for 10 weeks in a breeding room maintained at a temperature of 23° C., 55% humidity, illumination of 300 to 500 lux, a 12-h light/dark (L/D) cycle, and ventilation of 10 to 18 times/hr. Experiments included animals weighing […] or higher. Animals were fed ad libitum a high-fat diet (45 kcal % from fat, D12451, Research Diet) and tap water as drinking water.
(§2) Each group of animals was administered 195 mg/kg of the prodrug compound of Example 14 (hereinafter often simply referred to as “A31”) and 65 mg/kg of the prodrug compound of Example 5 (hereinafter often simply referred to as “A32”) for 4 weeks, as set forth in Table 1 below. Observations were made on changes in body weight and food intake, with respect to a time course of administration. After administration was complete, biochemical indices were assayed including changes in adipose tissue distribution, hepatic functions, and lipid and enzyme levels.

[2] = Biochemical indices in the blood of C57BL/6 mice after administration; format: in vivo; conditions: oral, 28 days; Example 14 195 mg/kg, Example 5 65 mg/kg; compared to control group; FIG. 4
Protocol: as §1, §2
FIGS. 4 and 5 show changes of biochemical indices in the blood of C57BL/6 mice to which the prodrug composition of Example 5 and the prodrug composition of Example 14 were administered.

Molecule	body weight (g) [1]	body weight gain (%) [1]	blood levels of GOT/GTP enzymes [2]
10,11-diacetoxy-2,6,6-trimethyl-1,2,6,7,8,9-hexahydro-phenanthro[1,2b]furan [Example 14]	significant reductions	significant reductions	decreased
CC(=O)Oc1c2c(c3ccccc3c1OC(C)=O)OC(C)(C)CC2 [Example 5, 5,6-diacetoxy-2,2-dimethyl-3,4-dihydro-2H-benzo[h]chromene]	excellent weight-loss effects	negative (−) value	decreased
